Measured values: the kinase profiling compilation of Christmann-Franck et al. (2016)

Tests used:
Test in all cases: radiometric filter-binding kinase assay, Kinase HotSpot
Conditions in all cases: compound 0.5 µM; ATP 10 µM
TGFBR2 (human) = TGFBR2 (human) (UniProt P37173)
PRKX (human) = PRKX (human) (UniProt P51817)
CDK9 CCNT1 (human) = CDK9 CCNT1 (human) (UniProt P50750+O60563)
TBK1 (human) = TBK1 (human) (UniProt Q9UHD2)
MATK (human) = MATK (human) (UniProt P42679)
STK17A (human) = STK17A (human) (UniProt Q9UEE5)
Sequence of STK17A (human) (Q9UEE5 whole entry, looked up): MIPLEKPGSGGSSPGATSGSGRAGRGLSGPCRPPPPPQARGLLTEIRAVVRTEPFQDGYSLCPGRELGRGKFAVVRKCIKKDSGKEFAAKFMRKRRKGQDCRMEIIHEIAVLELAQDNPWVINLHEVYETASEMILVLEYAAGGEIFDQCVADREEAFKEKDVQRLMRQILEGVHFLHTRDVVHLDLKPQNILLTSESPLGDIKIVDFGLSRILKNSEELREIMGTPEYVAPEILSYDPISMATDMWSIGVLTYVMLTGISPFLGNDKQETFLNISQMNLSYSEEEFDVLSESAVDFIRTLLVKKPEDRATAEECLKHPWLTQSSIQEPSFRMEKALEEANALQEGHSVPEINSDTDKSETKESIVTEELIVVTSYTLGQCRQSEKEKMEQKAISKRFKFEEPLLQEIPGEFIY

SRPK3 (human) = SRPK3 (human) (UniProt Q9UPE1)
ADRBK1 (human) = ADRBK1 (human) (UniProt P25098)
MAP3K14 (human) = MAP3K14 (human) (UniProt Q99558)
BTK (human) = BTK (human) (UniProt Q06187)
PLK1 (human) = PLK1 (human) (UniProt P53350)
CAMK1D (human) = CAMK1D (human) (UniProt Q8IU85)
INSR (human) = INSR (human) (UniProt P06213)
Sequence of INSR (human) (P06213 whole entry, looked up): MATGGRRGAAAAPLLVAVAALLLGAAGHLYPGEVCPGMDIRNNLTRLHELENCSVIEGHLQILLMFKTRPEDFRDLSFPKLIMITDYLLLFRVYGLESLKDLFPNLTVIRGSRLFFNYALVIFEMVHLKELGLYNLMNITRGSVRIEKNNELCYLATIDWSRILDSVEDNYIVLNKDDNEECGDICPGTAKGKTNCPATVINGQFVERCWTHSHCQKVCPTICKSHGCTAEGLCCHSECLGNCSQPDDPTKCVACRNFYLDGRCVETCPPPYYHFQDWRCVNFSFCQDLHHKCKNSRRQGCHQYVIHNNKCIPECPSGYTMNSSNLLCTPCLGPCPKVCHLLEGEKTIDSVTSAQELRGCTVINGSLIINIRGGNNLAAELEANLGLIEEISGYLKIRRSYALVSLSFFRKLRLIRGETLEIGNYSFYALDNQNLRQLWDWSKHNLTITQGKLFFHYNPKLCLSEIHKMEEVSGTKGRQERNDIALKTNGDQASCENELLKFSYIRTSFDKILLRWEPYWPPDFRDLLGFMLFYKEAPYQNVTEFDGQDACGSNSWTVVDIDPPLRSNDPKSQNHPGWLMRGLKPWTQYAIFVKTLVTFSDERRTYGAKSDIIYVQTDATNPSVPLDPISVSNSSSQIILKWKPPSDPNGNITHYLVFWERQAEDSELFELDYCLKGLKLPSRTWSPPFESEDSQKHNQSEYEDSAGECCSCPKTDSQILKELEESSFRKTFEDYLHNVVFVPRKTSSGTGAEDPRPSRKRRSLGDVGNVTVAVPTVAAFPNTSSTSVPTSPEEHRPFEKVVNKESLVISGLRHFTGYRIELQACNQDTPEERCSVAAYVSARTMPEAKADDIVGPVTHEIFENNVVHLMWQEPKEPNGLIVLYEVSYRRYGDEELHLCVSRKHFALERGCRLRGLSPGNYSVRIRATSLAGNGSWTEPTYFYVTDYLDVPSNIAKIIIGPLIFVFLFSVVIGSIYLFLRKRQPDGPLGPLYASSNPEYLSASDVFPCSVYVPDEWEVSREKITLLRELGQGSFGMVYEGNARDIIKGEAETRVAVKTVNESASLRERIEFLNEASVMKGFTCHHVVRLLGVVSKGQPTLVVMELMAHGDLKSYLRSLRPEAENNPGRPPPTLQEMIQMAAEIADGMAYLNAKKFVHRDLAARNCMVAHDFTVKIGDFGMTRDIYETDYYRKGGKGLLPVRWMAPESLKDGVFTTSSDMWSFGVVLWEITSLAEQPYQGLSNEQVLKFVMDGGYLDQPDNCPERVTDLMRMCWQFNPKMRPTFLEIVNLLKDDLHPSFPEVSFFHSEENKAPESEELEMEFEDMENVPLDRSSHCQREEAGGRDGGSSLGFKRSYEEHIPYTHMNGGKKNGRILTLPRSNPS

BRSK2 (human) = BRSK2 (human) (UniProt Q8IWQ3)
SIK2 (human) = SIK2 (human) (UniProt Q9H0K1)
STK33 (human) = STK33 (human) (UniProt Q9BYT3)
Sequence of STK33 (human) (Q9BYT3 whole entry, looked up): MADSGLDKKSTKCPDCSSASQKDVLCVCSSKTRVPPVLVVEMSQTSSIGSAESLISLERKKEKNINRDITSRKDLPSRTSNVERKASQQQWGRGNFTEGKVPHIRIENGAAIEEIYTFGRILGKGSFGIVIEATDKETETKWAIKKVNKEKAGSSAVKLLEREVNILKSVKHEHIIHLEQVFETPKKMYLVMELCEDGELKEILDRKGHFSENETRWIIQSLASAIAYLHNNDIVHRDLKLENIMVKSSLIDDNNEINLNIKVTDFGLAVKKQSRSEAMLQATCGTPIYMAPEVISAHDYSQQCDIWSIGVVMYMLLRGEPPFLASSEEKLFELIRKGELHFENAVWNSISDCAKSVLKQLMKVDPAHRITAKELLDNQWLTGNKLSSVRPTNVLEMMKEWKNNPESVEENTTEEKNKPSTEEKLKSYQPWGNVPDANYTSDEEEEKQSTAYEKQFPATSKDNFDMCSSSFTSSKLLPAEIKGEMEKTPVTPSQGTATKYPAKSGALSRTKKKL

NTRK2 (human) = NTRK2 (human) (UniProt Q16620)
RPS6KA5 KD2 (human) = RPS6KA5 KD2 (human) (UniProt O75582)
Sequence of RPS6KA5 KD2 (human) (O75582 whole entry, looked up): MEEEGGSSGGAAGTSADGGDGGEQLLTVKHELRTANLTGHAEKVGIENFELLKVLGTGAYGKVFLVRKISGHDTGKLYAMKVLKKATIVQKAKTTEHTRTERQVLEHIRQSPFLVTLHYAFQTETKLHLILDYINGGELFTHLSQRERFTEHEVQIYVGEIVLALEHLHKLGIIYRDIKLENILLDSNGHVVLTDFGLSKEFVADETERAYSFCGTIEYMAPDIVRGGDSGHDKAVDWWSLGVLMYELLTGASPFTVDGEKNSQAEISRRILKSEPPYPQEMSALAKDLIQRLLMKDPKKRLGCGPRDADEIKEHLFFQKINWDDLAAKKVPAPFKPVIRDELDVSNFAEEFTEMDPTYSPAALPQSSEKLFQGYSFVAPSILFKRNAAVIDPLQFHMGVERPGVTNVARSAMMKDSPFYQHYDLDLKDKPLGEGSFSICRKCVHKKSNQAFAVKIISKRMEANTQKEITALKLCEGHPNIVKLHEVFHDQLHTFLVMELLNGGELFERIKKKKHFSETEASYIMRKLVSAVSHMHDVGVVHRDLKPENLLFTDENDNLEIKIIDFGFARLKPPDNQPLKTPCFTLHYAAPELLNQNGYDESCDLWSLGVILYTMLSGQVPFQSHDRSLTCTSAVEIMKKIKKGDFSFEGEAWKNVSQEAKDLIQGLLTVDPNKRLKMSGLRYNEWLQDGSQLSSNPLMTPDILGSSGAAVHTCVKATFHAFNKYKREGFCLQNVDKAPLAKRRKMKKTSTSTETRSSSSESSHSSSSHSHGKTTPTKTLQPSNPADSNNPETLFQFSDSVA

CSNK1G3 (human) = CSNK1G3 (human) (UniProt Q9Y6M4)
Sequence of CSNK1G3 (human) (Q9Y6M4 whole entry, looked up): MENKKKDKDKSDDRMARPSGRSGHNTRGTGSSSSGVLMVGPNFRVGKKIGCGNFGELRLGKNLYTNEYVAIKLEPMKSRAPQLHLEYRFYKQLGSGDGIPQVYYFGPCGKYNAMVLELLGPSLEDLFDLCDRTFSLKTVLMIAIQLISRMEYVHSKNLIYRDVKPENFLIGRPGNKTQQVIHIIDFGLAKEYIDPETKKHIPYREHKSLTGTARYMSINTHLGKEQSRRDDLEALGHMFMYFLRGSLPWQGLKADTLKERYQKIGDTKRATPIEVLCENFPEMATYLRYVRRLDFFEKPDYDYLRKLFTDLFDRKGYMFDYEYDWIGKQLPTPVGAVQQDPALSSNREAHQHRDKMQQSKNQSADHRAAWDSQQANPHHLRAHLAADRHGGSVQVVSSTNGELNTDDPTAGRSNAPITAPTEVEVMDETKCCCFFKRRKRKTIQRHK

CAMK1 (human) = CAMK1 (human) (UniProt Q14012)
Sequence of CAMK1 (human) (Q14012 whole entry, looked up): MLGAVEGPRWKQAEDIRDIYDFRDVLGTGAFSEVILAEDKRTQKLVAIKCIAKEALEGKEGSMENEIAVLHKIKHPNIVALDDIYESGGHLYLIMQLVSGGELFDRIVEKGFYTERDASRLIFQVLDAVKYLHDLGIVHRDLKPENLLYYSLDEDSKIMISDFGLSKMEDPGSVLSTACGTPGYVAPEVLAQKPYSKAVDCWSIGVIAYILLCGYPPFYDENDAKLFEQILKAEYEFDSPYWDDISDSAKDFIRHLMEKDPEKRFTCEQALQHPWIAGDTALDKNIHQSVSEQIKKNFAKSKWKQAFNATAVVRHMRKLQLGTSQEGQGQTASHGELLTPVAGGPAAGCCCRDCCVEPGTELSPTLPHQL

PKN1 (human) = PKN1 (human) (UniProt Q16512)
GRK5 (human) = GRK5 (human) (UniProt P34947)
SYK (human) = SYK (human) (UniProt P43405)
EPHA5 (human) = EPHA5 (human) (UniProt P54756)
CSNK1G2 (human) = CSNK1G2 (human) (UniProt P78368)
Sequence of CSNK1G2 (human) (P78368 whole entry, looked up): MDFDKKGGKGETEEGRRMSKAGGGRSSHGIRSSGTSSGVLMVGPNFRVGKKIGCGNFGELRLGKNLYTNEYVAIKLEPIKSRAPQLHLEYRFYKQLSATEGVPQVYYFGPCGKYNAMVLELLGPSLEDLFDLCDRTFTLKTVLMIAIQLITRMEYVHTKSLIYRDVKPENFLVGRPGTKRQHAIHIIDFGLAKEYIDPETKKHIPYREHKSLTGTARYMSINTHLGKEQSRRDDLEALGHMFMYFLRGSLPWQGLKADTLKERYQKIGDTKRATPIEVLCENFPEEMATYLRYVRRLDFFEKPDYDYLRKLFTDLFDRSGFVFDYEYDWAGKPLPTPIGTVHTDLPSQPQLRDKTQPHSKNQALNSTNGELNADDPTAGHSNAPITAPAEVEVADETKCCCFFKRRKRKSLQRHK

HCK (human) = HCK (human) (UniProt P08631)
PRKCI (human) = PRKCI (human) (UniProt P41743)
HIPK3 (human) = HIPK3 (human) (UniProt Q9H422)
SLK (human) = SLK (human) (UniProt Q9H2G2)
CDK4 CCND3 (human) = CDK4 CCND3 (human) (UniProt P30281+P11802)
TYRO3 (human) = TYRO3 (human) (UniProt Q06418)
CDC42BPA (human) = CDC42BPA (human) (UniProt Q5VT25)
CDK6 CCND3 (human) = CDK6 CCND3 (human) (UniProt P30281+Q00534)
FGFR2 (human) = FGFR2 (human) (UniProt P21802)
PLK3 (human) = PLK3 (human) (UniProt Q9H4B4)
[1] = system: PRKCQ (human), Q04759 [P330L]
Sequence of PRKCQ (human), Q04759 [P330L] (Q04759 whole entry P330L, looked up): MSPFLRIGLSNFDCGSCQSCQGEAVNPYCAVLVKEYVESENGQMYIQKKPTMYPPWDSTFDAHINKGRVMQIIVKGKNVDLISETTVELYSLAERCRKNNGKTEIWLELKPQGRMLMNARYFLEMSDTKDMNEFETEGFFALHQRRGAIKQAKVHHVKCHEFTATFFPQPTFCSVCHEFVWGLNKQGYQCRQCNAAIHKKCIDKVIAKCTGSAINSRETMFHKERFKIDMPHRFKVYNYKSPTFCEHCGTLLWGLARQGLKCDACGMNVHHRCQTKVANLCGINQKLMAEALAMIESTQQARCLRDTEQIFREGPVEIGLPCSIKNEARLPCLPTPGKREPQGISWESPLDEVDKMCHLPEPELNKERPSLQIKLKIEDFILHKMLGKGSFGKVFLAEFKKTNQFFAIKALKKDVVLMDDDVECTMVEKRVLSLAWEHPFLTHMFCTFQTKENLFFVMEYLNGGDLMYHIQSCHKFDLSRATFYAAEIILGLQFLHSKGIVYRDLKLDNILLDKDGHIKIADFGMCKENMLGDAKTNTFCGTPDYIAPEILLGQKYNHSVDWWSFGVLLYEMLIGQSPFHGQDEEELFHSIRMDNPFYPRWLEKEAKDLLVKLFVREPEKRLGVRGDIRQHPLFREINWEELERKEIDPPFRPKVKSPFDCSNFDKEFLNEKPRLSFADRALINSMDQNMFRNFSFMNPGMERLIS

PAK3 (human) = PAK3 (human) (UniProt O75914)
CDK1 CCNA2 (human) = CDK1 CCNA2 (human) (UniProt P06493+P20248)
TAOK1 (human) = TAOK1 (human) (UniProt Q7L7X3)
CDK1 CCNB1 (human) = CDK1 CCNB1 (human) (UniProt P06493+P14635)
IGF1R (human) = IGF1R (human) (UniProt P08069)

CCCCc1c(-c2ccc(OC)cc2)[nH]c2nccnc12
residual activity (TGFBR2 (human)): 74.8% | residual activity (PRKX (human)): 102% | residual activity (CDK9 CCNT1 (human)): 55.2% | residual activity (TBK1 (human)): 81.4% | residual activity (MATK (human)): 101% | residual activity (STK17A (human)): 95.5% | residual activity (SRPK3 (human)): 97.9% | residual activity (ADRBK1 (human)): 78.5% | residual activity (MAP3K14 (human)): 105% | residual activity (BTK (human)): 64.7% | residual activity (PLK1 (human)): 104% | residual activity (CAMK1D (human)): 97.9% | residual activity (INSR (human)): 97.6% | residual activity (BRSK2 (human)): 90.8% | residual activity (SIK2 (human)): 98.4% | residual activity (STK33 (human)): 84.6% | residual activity (NTRK2 (human)): 73.4% | residual activity (RPS6KA5 KD2 (human)): 104% | residual activity (CSNK1G3 (human)): 89.2% | residual activity (CAMK1 (human)): 90.9% | residual activity (PKN1 (human)): 89.1% | residual activity (GRK5 (human)): 105% | residual activity (SYK (human)): 47.5% | residual activity (EPHA5 (human)): 91.6% | residual activity (CSNK1G2 (human)): 92.5% | residual activity (HCK (human)): 94.4% | residual activity (PRKCI (human)): 72.8% | residual activity (HIPK3 (human)): 99.9% | residual activity (SLK (human)): 76.2% | residual activity (CDK4 CCND3 (human)): 69.7% | residual activity (TYRO3 (human)): 98.6% | residual activity (CDC42BPA (human)): 99.7% | residual activity (CDK6 CCND3 (human)): 79.7% | residual activity (FGFR2 (human)): 89.5% | residual activity (PLK3 (human)): 91.5% | residual activity [1]: 107% | residual activity (PAK3 (human)): 106% | residual activity (CDK1 CCNA2 (human)): 65.4% | residual activity (TAOK1 (human)): 87% | residual activity (CDK1 CCNB1 (human)): 47.7% | residual activity (IGF1R (human)): 83.9%

O=C1C(Cl)=C(N2C(=O)CCC2=O)C(=O)c2ccccc21
residual activity (TGFBR2 (human)): 130% | residual activity (PRKX (human)): 103% | residual activity (CDK9 CCNT1 (human)): 101% | residual activity (TBK1 (human)): 97.9% | residual activity (MATK (human)): 88% | residual activity (STK17A (human)): 101% | residual activity (SRPK3 (human)): 93.6% | residual activity (ADRBK1 (human)): 105% | residual activity (MAP3K14 (human)): 102% | residual activity (BTK (human)): 103% | residual activity (PLK1 (human)): 97.6% | residual activity (CAMK1D (human)): 102% | residual activity (INSR (human)): 105% | residual activity (BRSK2 (human)): 100% | residual activity (SIK2 (human)): 92.8% | residual activity (STK33 (human)): 91.5% | residual activity (NTRK2 (human)): 104% | residual activity (RPS6KA5 KD2 (human)): 101% | residual activity (CSNK1G3 (human)): 93.5% | residual activity (CAMK1 (human)): 98.3% | residual activity (PKN1 (human)): 108% | residual activity (GRK5 (human)): 91.5% | residual activity (SYK (human)): 95.9% | residual activity (EPHA5 (human)): 113% | residual activity (CSNK1G2 (human)): 99.3% | residual activity (HCK (human)): 94.2% | residual activity (PRKCI (human)): 96.6% | residual activity (HIPK3 (human)): 112% | residual activity (SLK (human)): 104% | residual activity (CDK4 CCND3 (human)): 107% | residual activity (TYRO3 (human)): 114% | residual activity (CDC42BPA (human)): 103% | residual activity (CDK6 CCND3 (human)): 99.2% | residual activity (FGFR2 (human)): 102% | residual activity (PLK3 (human)): 96.6% | residual activity [1]: 114% | residual activity (PAK3 (human)): 104% | residual activity (CDK1 CCNA2 (human)): 99.8% | residual activity (TAOK1 (human)): 83.1% | residual activity (CDK1 CCNB1 (human)): 118% | residual activity (IGF1R (human)): 107%

O=C1c2ccccc2-c2nc3nnnn3nc21
residual activity (TGFBR2 (human)): 93.4% | residual activity (PRKX (human)): 94.3% | residual activity (CDK9 CCNT1 (human)): 97% | residual activity (TBK1 (human)): 87% | residual activity (MATK (human)): 99.7% | residual activity (STK17A (human)): 83.8% | residual activity (SRPK3 (human)): 89.4% | residual activity (ADRBK1 (human)): 106% | residual activity (MAP3K14 (human)): 124% | residual activity (BTK (human)): 90.6% | residual activity (PLK1 (human)): 28.6% | residual activity (CAMK1D (human)): 93.9% | residual activity (INSR (human)): 32.3% | residual activity (BRSK2 (human)): 66.7% | residual activity (SIK2 (human)): 106% | residual activity (STK33 (human)): 107% | residual activity (NTRK2 (human)): 29.4% | residual activity (RPS6KA5 KD2 (human)): 68.7% | residual activity (CSNK1G3 (human)): 80.3% | residual activity (CAMK1 (human)): 68.7% | residual activity (PKN1 (human)): 97.5% | residual activity (GRK5 (human)): 74.3% | residual activity (SYK (human)): 94.8% | residual activity (EPHA5 (human)): 81.5% | residual activity (CSNK1G2 (human)): 82.2% | residual activity (HCK (human)): 84% | residual activity (PRKCI (human)): 85.7% | residual activity (HIPK3 (human)): 101% | residual activity (SLK (human)): 92.4% | residual activity (CDK4 CCND3 (human)): 68.1% | residual activity (TYRO3 (human)): 33.3% | residual activity (CDC42BPA (human)): 91.6% | residual activity (CDK6 CCND3 (human)): 9.93% | residual activity (FGFR2 (human)): 59.4% | residual activity (PLK3 (human)): 28.5% | residual activity [1]: 83% | residual activity (PAK3 (human)): 97.1% | residual activity (CDK1 CCNA2 (human)): 48.9% | residual activity (TAOK1 (human)): 90.2% | residual activity (CDK1 CCNB1 (human)): 48% | residual activity (IGF1R (human)): 91.1%
